Measurements published in patent EP4793292A1, “POLYPEPTIDE DERIVATIVE, PHARMACEUTICAL COMPOSITION THEREOF AND USE THEREOF” (Biocells (Beijing) Biotech Co., Ltd., priority 2023, dated 2025).
Starred links: 1 amine or outer side, 2 acyl side, 3 side chain; linkers in the order of their positions; H or OH if unused. Non-standard residues stand in square brackets, D forms with d. Residues, ends and D or L forms follow the SMILES beside them. Groups on a side chain read outwards from the residue. No end group written: not given here. *: point of attachment. C18 diacid = O=C(O)CCCCCCCCCCCCCCCCC(=O)*; γGlu = O=C(O)[C@H](CCC(=O)[*:2])N[*:1]; Palmitoyl = CCCCCCCCCCCCCCCC(=O)*; AEEA = NCCOCCOCC(=O)O

Experiments:
[1] = Determination of the half-life of polypeptides in rats (plasma LC-MS/MS); type: in vivo; design: AUClast (0-120 min): unit not given here; conditions: male SD rats, intravenous 4 mg/kg; for 30 min blood drug concentration / level at 0.5 h: 30 min after injection; for half-life / level at 0.5 h: rat, plasma; for level at 0.5 h: read-out: 30 min blood drug concentration
Procedure: Plasma sample collection method: 2 male SD rats (280-300 g) were intravenously injected with PW5, PW6, PW182, and PW337 respectively, the pure peptide dose was 4 mg/kg, and the dosing volume was 2 mL/kg. At 0.5 min, 2 min, 5 min, 10 min, 15 min, 30 min, 60 min, and 120 min after intravenous injection of the drug via the tail vein, blood (400 µL/time) was collected through an indwelling jugular vein catheter into anticoagulant tubes containing EDTA-K2, and 100x protease inhibitor (1:50, v:v; Roche, 11873580001) was added. Whole blood samples were placed on ice and centrifuged (3200 g, 4°C, 10 min) within 1 hour after blood collection. Plasma was taken into a pre-cooled centrifuge tube, protease inhibitor (1:50, v:v) was added again, mixed homogeneously, and stored at -80°C.
Plasma sample processing method: Plasma samples were pipetted into a 96-well plate (50 µL/well), pure methanol (300 µL/well) was added, and mixed by vortexing (1500 rpm, 10 min). Centrifuged (4800 g, 4°C, 10 min), the supernatant was taken into a new 96-well plate (100 µL/well), a 20% aqueous methanol solution containing 0.2% formic acid (100 µL/well) was added, and mixed by vortexing (1500 rpm, 3 min). 10.0 µL was injected for LC-MS/MS analysis to obtain the drug concentration in the samples. Instrument model: (Waters TQ-XS) Chromatographic column: SHIMADZU Shim-Pack Scepter Claris C4-300 (2.1×50 mm, 1.9 µm) Detection results: Table 3. Half-life, blood drug concentration, and AUC data of the conjugates

SH-SY5Y cells = experiment: Axonal growth of RA-differentiated SH-SY5Y cells on proteoglycan (ACAN) coating; type: cell-based, human; conditions: PW polypeptide 2.5 µM, 72 h, proteoglycan (ACAN)-coated plate, FIG. 1
Procedure: Therefore, RA-induced differentiated SH-SY5Y can be used to simulate neuronal axonal growth in vitro and to test the effects of PW polypeptides on axonal growth.
Preparation of culture medium for SH-SY5Y: 1) DMEM/F12 + 10% FBS + 1 × penicillin-streptomycin + 1 mM sodium pyruvate; 2) DMEM/F12 + 1% FBS + 1 × penicillin-streptomycin + 1 mM sodium pyruvate. Preparation of 50 mM retinoic acid stock solution: 15.02 mg of retinoic acid was weighed and dissolved in 1 mL of dimethyl sulfoxide (DMSO), aliquoted, and frozen at -80°C. Proteoglycan (ACAN/CSPG1) is a type of chondroitin sulfate proteoglycan (CSPG). Preparation of 1 mg/mL proteoglycan stock solution: 1 mg of ACAN solid was dissolved in 1 mL of distilled water, aliquoted, and frozen at -80°C. Preparation of PW polypeptide solution for cells (1 mM): the corresponding mass of polypeptide powder was weighed, dissolved in PBS and filtered through a 0.2 µm filter membrane, aliquoted, and frozen at -20°C.
The 1 mg/mL proteoglycan was diluted to 250 µg/mL with distilled water to coat a 24-well cell culture plate: each well was coated with 3 droplets of ACAN, 2 µL per droplet. Using the culture medium containing 10% FBS, SH-SY5Y cells were seeded in the proteoglycan-coated 24-well plate (20,000 cells/well) and incubated (37°C, 5% CO2) for 20 h. The medium was replaced with a culture medium containing 1% FBS, and PW polypeptide (2.5 µM) or an equal volume of PBS solution was added. After incubation for 72 h, the cells were fixed with 4% paraformaldehyde (room temperature, 30 min), and cell morphology was photographed and recorded using a 10× optical microscope. 20-30 cells were randomly selected under each field of view, and axonal length was measured using Image J-SNT.
Data analysis: All measured axonal lengths within each proteoglycan-coated range were averaged to serve as one data point. One-way analysis of variance and Tukey's test were used to compare the differences between groups. P<0.05 was considered as a significant difference.

[2] = tested on: rats with chronic spinal cord injury; experiment: BBB locomotor scoring in rats with chronic spinal cord injury; type: in vivo; conditions: 2 mg/kg subcutaneous daily; days 1-14 after surgery (acute and subacute phase), FIG. 4
Procedure: Female SD rats (250-270 g) were randomly grouped after being weighed. After the dorsal T10 segment lamina of the rats was removed, spinal cord contusion was performed on rats in each spinal cord injury (SCI) surgery group, while for rats in the sham operation (sham) group, only the T10 segment lamina was removed without contusion. Rats with a BBB locomotor score > 1 on day 1 after spinal cord injury surgery were excluded, and the remaining rats were randomly grouped and subcutaneously injected daily with: equal volume of physiological saline (vehicle control), PW5 (2 mg/kg), and PW337 (2 mg/kg); rats in the sham operation group were not injected. BBB scoring was performed weekly after spinal cord injury surgery.

[3] = Body weight of rats after spinal cord injury (SCI) surgery; type: in vivo; conditions: 1 mg/kg subcutaneous daily, female SD rats, FIG. 2
Procedure: Female SD rats (250-270 g) were randomly grouped after being weighed. After the dorsal T10 segment lamina of the rats was removed, spinal cord contusion was performed on rats in each spinal cord injury (SCI) surgery group, while for rats in the sham operation (sham) group, only the T10 segment lamina was removed without contusion. Rats with a BBB locomotor score > 1 on day 1 after spinal cord injury surgery were excluded, and the remaining rats were randomly grouped and subcutaneously injected daily with: equal volume of physiological saline (vehicle control), PW5 (1 mg/kg), and PW337 (1, 2, 4 mg/kg); rats in the sham operation group were not injected. The body weight of the rats was measured weekly after spinal cord injury surgery, and BBB scoring and open field activity tests were performed.

| Compound | AUClast (0-120 min) [1] | 30 min blood drug concentration [1] [ng/mL] | half-life [1] [min] | effect of promoting axonal growth compared with the scrambled polypeptide (Scr, negative control) (SH-SY5Y cells) | level at 0.5 h [1] [µg/mL] | promoting effect on axonal growth compared with PW6 (SH-SY5Y cells) | BBB scores, differences among SCI, PW5 and PW337 groups [2] | body weight recovery compared with rats in the spinal cord injury (SCI) group [3] |
| --- | --- | --- | --- | --- | --- | --- | --- | --- |
| GRKKRRQRRRCDMAEHTERLKANDSLKLSQEYESI-NH2 [PW-6, reference compound] | 1787 | 0 | 2.2 | significant effect of promoting axonal growth | – | – | – | – |
| CC[C@H](C)[C@H](NC(=O)[C@H](CO)NC(=O)[C@H](CCC(=O)O)NC(=O)[C@H](Cc1ccc(O)cc1)NC(=O)[C@H](CCC(=O)O)NC(=O)[C@H](CCC(N)=O)NC(=O)[C@H](CO)NC(=O)[C@H](CC(C)C)NC(=O)[C@H](CCCCNC(=O)COCCOCCNC(=O)COCCOCCNC(=O)CC[C@H](NC(=O)CCCCCCCCCCCCCCCCC(=O)O)C(=O)O)NC(=O)[C@H](CC(C)C)NC(=O)[C@H](CO)NC(=O)[C@H](CC(=O)O)NC(=O)[C@H](CC(N)=O)NC(=O)[C@H](C)NC(=O)[C@H](CCCCN)NC(=O)[C@H](CC(C)C)NC(=O)[C@H](CCCNC(=N)N)NC(=O)[C@H](CCC(=O)O)NC(=O)[C@@H](NC(=O)[C@H](Cc1c[nH]cn1)NC(=O)[C@H](CCC(=O)O)NC(=O)[C@H](C)NC(=O)[C@H](CCSC)NC(=O)[C@H](CC(=O)O)NC(=O)[C@H](CCCNC(=N)N)NC(=O)[C@H](CCCNC(=N)N)NC(=O)[C@H](CCCNC(=N)N)NC(=O)[C@H](CCC(N)=O)NC(=O)[C@H](CCCNC(=N)N)NC(=O)[C@H](CCCNC(=N)N)NC(=O)[C@H](CCCCN)NC(=O)[C@H](CCCCN)NC(=O)[C@H](CCCNC(=N)N)NC(=O)CN)[C@@H](C)O)C(N)=O [PW-182] (H-GRKKRRQRRRDMAEHTERLKANDSLK([AEEA-AEEA-γGlu-C18 diacid])LSQEYESI-NH2) | 4927113 | – | 61.6 | – | 64.4 | – | – | – |
| CC[C@H](C)[C@H](NC(=O)[C@H](CO)NC(=O)[C@H](CCC(=O)O)NC(=O)[C@H](Cc1ccc(O)cc1)NC(=O)[C@H](CCC(=O)O)NC(=O)[C@H](CCC(N)=O)NC(=O)[C@H](CO)NC(=O)[C@H](CC(C)C)NC(=O)[C@H](CCCCNC(=O)COCCOCCNC(=O)COCCOCCNC(=O)CC[C@H](NC(=O)CCCCCCCCCCCCCCCCC(=O)O)C(=O)O)NC(=O)[C@H](CC(C)C)NC(=O)[C@H](CO)NC(=O)[C@H](CC(=O)O)NC(=O)[C@H](CC(N)=O)NC(=O)[C@H](C)NC(=O)[C@H](CCCCN)NC(=O)[C@H](CC(C)C)NC(=O)[C@H](CCCNC(=N)N)NC(=O)[C@H](CCC(=O)O)NC(=O)[C@H](CCSC)NC(=O)[C@H](Cc1c[nH]cn1)NC(=O)[C@H](CCC(=O)O)NC(=O)[C@H](C)NC(=O)[C@H](CCSC)NC(=O)[C@H](CC(=O)O)NC(=O)[C@H](CCCNC(=N)N)NC(=O)[C@H](CCCNC(=N)N)NC(=O)[C@H](CCCNC(=N)N)NC(=O)[C@H](CCC(N)=O)NC(=O)[C@H](CCCNC(=N)N)NC(=O)[C@H](CCCNC(=N)N)NC(=O)[C@H](CCCCN)NC(=O)[C@H](CCCCN)NC(=O)[C@H](CCCNC(=N)N)NC(=O)CN)C(N)=O [PW-337] | 4157725 | – | 95.6 | – | 56.8 | – | – | – |
| PW-252: polypeptide derivative, SEQ ID NO: 47 (G[dR]KKR[dR]Q[dR]RRCDMAEHTERLK([AEEA-AEEA-γGlu-Palmitoyl])ANDSLKLSQEYESI-NH2; N-terminus assumed; SMILES CCCCCCCCCCCCCCCC(=O)N[C@@H](CCC(=O)NCCOCCOCC(=O)NCCOCCOCC(=O)NCCCC[C@H](NC(=O)[C@H](CC(C)C)NC(=O)[C@H](CCCNC(=N)N)NC(=O)[C@H](CCC(=O)O)NC(=O)[C@@H](NC(=O)[C@H](Cc1c[nH]cn1)NC(=O)[C@H](CCC(=O)O)NC(=O)[C@H](C)NC(=O)[C@H](CCSC)NC(=O)[C@H](CC(=O)O)NC(=O)[C@H](CS)NC(=O)[C@H](CCCNC(=N)N)NC(=O)[C@H](CCCNC(=N)N)NC(=O)[C@@H](CCCNC(=N)N)NC(=O)[C@H](CCC(N)=O)NC(=O)[C@@H](CCCNC(=N)N)NC(=O)[C@H](CCCNC(=N)N)NC(=O)[C@H](CCCCN)NC(=O)[C@H](CCCCN)NC(=O)[C@@H](CCCNC(=N)N)NC(=O)CN)[C@@H](C)O)C(=O)N[C@@H](C)C(=O)N[C@@H](CC(N)=O)C(=O)N[C@@H](CC(=O)O)C(=O)N[C@@H](CO)C(=O)N[C@@H](CC(C)C)C(=O)N[C@@H](CCCCN)C(=O)N[C@@H](CC(C)C)C(=O)N[C@@H](CO)C(=O)N[C@@H](CCC(N)=O)C(=O)N[C@@H](CCC(=O)O)C(=O)N[C@@H](Cc1ccc(O)cc1)C(=O)N[C@@H](CCC(=O)O)C(=O)N[C@@H](CO)C(=O)N[C@H](C(N)=O)[C@@H](C)CC)C(=O)O) | – | – | – | significant effect of promoting axonal growth | – | no significant difference | – | – |
| CC[C@H](C)[C@H](NC(=O)[C@H](CO)NC(=O)[C@H](CCC(=O)O)NC(=O)[C@H](Cc1ccc(O)cc1)NC(=O)[C@H](CCC(=O)O)NC(=O)[C@H](CCC(N)=O)NC(=O)[C@H](CO)NC(=O)[C@H](CC(C)C)NC(=O)[C@H](CCCCN)NC(=O)[C@H](CC(C)C)NC(=O)[C@H](CO)NC(=O)[C@H](CC(=O)O)NC(=O)[C@H](CC(N)=O)NC(=O)[C@H](C)NC(=O)[C@H](CCCCN)NC(=O)[C@H](CC(C)C)NC(=O)[C@H](CCCNC(=N)N)NC(=O)[C@H](CCC(=O)O)NC(=O)[C@H](CCSC)NC(=O)[C@H](Cc1c[nH]cn1)NC(=O)[C@H](CCC(=O)O)NC(=O)[C@H](C)NC(=O)[C@H](CCSC)NC(=O)[C@H](CC(=O)O)NC(=O)[C@H](CS)NC(=O)[C@H](CCCNC(=N)N)NC(=O)[C@H](CCCNC(=N)N)NC(=O)[C@H](CCCNC(=N)N)NC(=O)[C@H](CCC(N)=O)NC(=O)[C@H](CCCNC(=N)N)NC(=O)[C@H](CCCNC(=N)N)NC(=O)[C@H](CCCCN)NC(=O)[C@H](CCCCN)NC(=O)[C@H](CCCNC(=N)N)NC(=O)CN)C(N)=O [PW-5, reference compound] | 928 | 0 | 4.3 | – | – | – | no significant differences | significantly accelerated on days 27-57 after surgery |
